Source: US8865750B2, “Small molecule inhibitors of RGS proteins” (The Regents of The University of Michigan, priority 2011, dated 2014)
Like-named read-outs stand apart in the source and are kept apart here.

Tests used:
HEK293 cells = experiment: Calcium mobilization induced by compound alone; assay type: cell-based; conditions: Homo sapiens, HEK293; read-out: Calcium transient (% 50014);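 note: percent of response to 10 µM reference CCG-50014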
Description: Calcium Mobilization Experiments:
A stable cell line was developed based upon the HEK-293 Flp-In TREx cell line (Invitrogen, Carlsbad, Calif.) that stably express the muscarinic M3 receptor and have human RGS4 expression under doxycycline control. Cells were maintained in DMEM supplemented with 10% fetal bovine serum and Penicillin (100 units/ml)-Streptomycin (100 μg/ml) under 5% CO2 at 37° C. For experiments, cells were split into 96-well black, clear bottom, poly-D-lysine coated microtiter plates (Nunc, Cat. #152037) at a density of 20,000 cells/well in DMEM containing 10% fetal bovine serum and Penicillin (100 units/ml), Streptomycin (100 μg/ml). RGS4 expression was induced by supplementing the medium with 1 μg/mL doxycycline for 24-48 hours before experimentation. Cells were loaded with Fluo-4 No Wash dye in buffer for 30 minutes at 37° C. Compounds and/or carbachol were added to the wells and the fluorescence intensity was measured using a FlexStation (Molecular Devices, Sunnyvale, Calif.) plate reader. Data analysis was performed by calculating the area under the curve or maximal fluorescence intensity from a 120 second kinetic measurement.

RGS4 = experiment: FCPIA: Gαo binding to RGS4; conditions: for RGS4 Hill Slope: Table 3; for IC50: read-out: RGS4 IC50; for activity at RGS4: FCPIA
Excerpt: (§1) FCPIA Dose Response and Reversibility Experiments:

RGS8 = RGS8 (Homo sapiens (Human), UniProt P57771); experiment: FCPIA: Gαo binding to RGS8; conditions: for RGS8 Hill Slope: Table 3; for IC50: read-out: RGS8 IC50
RGS8, sequence (P57771 other isoform, or with tags, fused parts or gaps): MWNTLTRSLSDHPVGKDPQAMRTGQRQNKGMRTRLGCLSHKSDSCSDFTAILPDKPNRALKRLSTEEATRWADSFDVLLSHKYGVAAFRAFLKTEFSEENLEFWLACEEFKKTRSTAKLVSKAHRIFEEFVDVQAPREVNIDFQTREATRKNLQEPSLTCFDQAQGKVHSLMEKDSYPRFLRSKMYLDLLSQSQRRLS
Excerpt: as §1

[1] = Table 3, duplex FCPIA, average of two experiments
[2] = Table 2, mean of two independent FCPIA experiments

| Compound | RGS4 Hill Slope (RGS4) | IC50 (RGS4; [1]) [µM] | RGS8 Hill Slope (RGS8) | IC50 (RGS8; Table 6, FCPIA) [µM] | Emax at 10 µM (HEK293 cells) [%] | further results |
| --- | --- | --- | --- | --- | --- | --- |
| Cc1ccc(CN2C(=O)CN(c3ccc(C)cc3)C2=O)cc1 [CCG-203778] | – | – | – | – | – | IC50 (RGS4; [2]): > 100 µM; IC50 (RGS8; [2]): > 100 µM |
| Cc1ccc(C2=CC(=O)N(Cc3ccccc3)C2=O)cc1 [CCG-203779] | – | – | – | – | – | IC50 (RGS4; [2]): 93 µM |
| CC(C)(C)c1ccc(-n2sc(=O)n(Cc3ccc(F)cc3)c2=O)cc1 [S1, 2-(4-t-butylphenyl)-4-(4-fluorobenzyl)-1,2,4-thiadiazolidine-3,5-dione] | – | – | – | 50.4 | – | – |
| O=c1sn(-c2ccccc2)c(=O)n1Cc1ccc(Cl)cc1 [S4, 2-phenyl-4-(4-chlorobenzyl)-1,2,4-thiadiazolidine-3,5-dione] | – | – | – | 7.5 | – | – |
| O=c1sn(-c2ccc(Cl)c(Cl)c2)c(=O)n1Cc1ccc(Cl)cc1 [S7, 2-(3,4-dichlorophenyl)-4-(4-chlorobenzyl)-1,2,4-thiadiazolidine-3,5-dione] | – | – | – | 43.2 | – | – |
| COc1ccc(-n2sc(=O)n(Cc3ccc(C)cc3)c2=O)cc1 [S11, 2-(4-methoxyphenyl)-4-(4-methylbenzyl)-1,2,4-thiadiazolidine-3,5-dione] | – | – | – | 6.6 | – | – |
| CC(C)(C)c1ccc(-n2sc(=O)n(Cc3cccc(Cl)c3)c2=O)cc1 [S15, 2-(4-t-butylphenyl)-4-(3-chlorobenzyl)-1,2,4-thiadiazolidine-3,5-dione] | – | – | – | 32.2 | – | – |
| O=c1sn(-c2cccc(C(F)(F)F)c2)c(=O)n1Cc1cccc(Cl)c1 [S18, 2-(3-trifluoromethylphenyl)-4-(3-chlorobenzyl)-1,2,4-thiadiazolidine-3,5-dione] | – | – | – | 16.2 | – | – |
| Cc1cccc(Cn2c(=O)sn(-c3ccc(C(C)(C)C)cc3)c2=O)c1 [S20, 2-(4-t-butylphenyl)-4-(3-methylbenzyl)-1,2,4-thiadiazolidine-3,5-dione] | – | – | – | 17.8 | – | – |
| Cc1cccc(Cn2c(=O)sn(-c3cccc(Cl)c3)c2=O)c1 [S22, 2-(3-chlorophenyl)-4-(3-methylbenzyl)-1,2,4-thiadiazolidine-3,5-dione] | – | – | – | 31 | – | – |
| Cc1cccc(Cn2c(=O)sn(-c3cccc(C(F)(F)F)c3)c2=O)c1 [S23, 2-(3-trifluoromethylphenyl)-4-(3-methylbenzyl)-1,2,4-thiadiazolidine-3,5-dione] | – | – | −1.03 | 15.9 | 65.2 | IC50 (RGS8; [1]): 15.9 µM |
| Cc1ccc(Cn2c(=O)sn(-c3ccc(Cl)c(Cl)c3)c2=O)cc1 [S!2, 2-(3,4-dichlorophenyl)-4-(4-methylbenzyl)-1,2,4-thiadiazolidine-3,5-dione] | – | – | – | 175 | – | – |
| Cc1ccc(CN2C(=O)CN(c3ccc(C)cc3)C2=O)cc1 [compound 14, 3-(4-methylbenzyl)-1-p-tolylimidazolidine-2,4-dione] | – | – | – | > 100 | – | activity at RGS4 (RGS4): Neither 14 or 15 displayed activity at RGS4; IC50 (RGS4; Table 6, FCPIA): > 100 µM |
| Cc1ccc(C2=CC(=O)N(Cc3ccccc3)C2=O)cc1 [compound 15, 1-benzyl-3-p-tolyl-1H-pyrrole-2,5-dione] | – | – | – | – | – | activity at RGS4 (RGS4): Neither 14 or 15 displayed activity at RGS4 |

Now from value to compound, other results behind:

| RGS4 Hill Slope (RGS4) | IC50 (RGS4; [1]) [µM] | RGS8 Hill Slope (RGS8) | IC50 (RGS8; Table 6, FCPIA) [µM] | Compound | Emax at 10 µM (HEK293 cells) [%] | further results |
| --- | --- | --- | --- | --- | --- | --- |
| −1.89 | 0.024 | −0.80 | 5.6 | O=c1sn(-c2ccccc2)c(=O)n1Cc1ccccc1 [CCG-203722, 2-phenyl-4-benzyl-1,2,4-thiadiazoline-3,5-dione] | 3.8 | – |
| −1.99 | 0.029 | −0.80 | – | O=c1sn(-c2ccc(Cl)cc2)c(=O)n1Cc1ccccc1 [CCG-203723, 2-(4-chlorophenyl)-4-benzyl-1,2,4-thiazolidine-3,5-dione] | 120 | IC50 (RGS8; [1]): 5.2 µM |
| −2.06 | 0.089 | −1.62 | 13.2 | O=c1sn(-c2ccc(Cl)c(Cl)c2)c(=O)n1Cc1ccccc1 [CCG-203725] | 64.2 | – |
| −1.42 | 0.016 | −0.82 | 6.2 | O=c1sn(-c2ccccc2)c(=O)n1Cc1ccc(F)cc1 [CCG-203726, 2-phenyl-4-(4-fluorobenzyl)-1,2,4-thiadiazolidine-3,5-dione] | 20.9 | – |
| −1.15 | 0.036 | −1.78 | – | O=c1sn(-c2ccc(Cl)c(Cl)c2)c(=O)n1Cc1ccc(F)cc1 [CCG-203728, 2-(3,4-dichlorophenyl)-4-(4-fluorobenzyl)-1,2,4-thiadiazolidine-3,5-dione] | 128 | IC50 (RGS8; [1]): 17.2 µM |
| −0.70 | – | −1.50 | 11.8 | Cc1ccc(-n2sc(=O)n(Cc3ccc(Cl)cc3)c2=O)cc1 [CCG-203731, 2-p-tolyl-4-(4-chlorobenzyl)-1,2,4-thiadiazolidine-3,5-dione] | -2.6 | IC50 (RGS4; Table 6, FCPIA): 0.0054 µM |
| −0.84 | – | −0.66 | – | Cc1ccc(Cn2sc(=O)n(Cc3ccccc3)c2=O)cc1 [CCG-203734, 2-(4-methylbenzyl)-4-benzyl-1,2,4-thiadiazolidine-3,5-dione] | 591 | IC50 (RGS4; Table 6, FCPIA): 0.0072 µM; IC50 (RGS8; [1]): 20.4 µM |
| −1.33 | 0.011 | −1.27 | 11.4 | COc1ccc(-n2sc(=O)n(Cc3ccc(F)cc3)c2=O)cc1 [CCG-203735, 2-(4-methoxyphenyl)-4-(4-fluorobenzyl)-1,2,4-thiadiazolidine-3,5-dione] | 6.2 | – |
| −1.35 | – | −1.45 | – | Cc1ccc(Cn2c(=O)sn(-c3ccc(C)cc3)c2=O)cc1 [CCG-203736, 2-p-tolyl-4-(4-methylbenzyl)-1,2,4-thiadiazolidine-3,5-dione] | 4.9 | IC50 (RGS4; Table 6, FCPIA): 0.0086 µM; IC50 (RGS8; [1]): 11.6 µM |
| −1.19 | 0.013 | −0.22 | – | Cc1ccc(Cn2sc(=O)n(Cc3ccc(F)cc3)c2=O)cc1 [CCG-203742, 2-(4-methylbenzyl)-4-(4-fluorobenzyl)-1,2,4-thiadiazolidine-3,5-dione] | 108 | IC50 (RGS8; [1]): 39.8 µM |
| −1.43 | 0.034 | −0.65 | – | Cc1ccc(-n2sc(=O)n(Cc3ccc(Cl)c(Cl)c3)c2=O)cc1 [CCG-203743, 2-p-tolyl-4-(3,4-dichlorobenzyl)-1,2,4-thiadiazolidine-3,5-dione] | 45.6 | IC50 (RGS8; [1]): 15.7 µM |
| −1.45 | 0.024 | −1.00 | – | COc1ccc(-n2sc(=O)n(Cc3ccccc3)c2=O)cc1 [CCG-203746, 2-(4-methoxyphenyl)-4-benzyl-1,2,4-thiadiazolidine-3,5-dione] | 74.6 | IC50 (RGS8; [1]): 12.3 µM |
| – | – | – | 312 | COc1ccc(Cn2c(=O)sn(-c3ccc(C)cc3)c2=O)cc1 [CCG-203754, 2-p-tolyl-4-(4-methoxybenzyl)-1,2,4-thiadiazolidine-3,5-dione] | – | – |
| – | – | – | 37 | CCn1sc(=O)n(C)c1=O [CCG-203758, 2-ethyl-4-methyl-1,2,4-thiadiazolidine-3,5-dione] | – | IC50 (RGS4; Table 6, FCPIA): 0.0223 µM |
| – | – | – | 18.7 | CCn1sc(=O)n(Cc2ccc(F)cc2)c1=O [CCG-203766, 2-ethyl-4-(4-fluorobenzyl)-1,2,4-thiadiazolidine-3,5-dione] | – | IC50 (RGS4; Table 6, FCPIA): 0.0223 µM |
| – | – | – | 9.9 | Cc1ccc(-n2sc(=O)n(Cc3cccc(C)c3)c2=O)cc1 [CCG-203782, 2-(4-methylphenyl)-4-(3-methylbenzyl)-1,2,4-thiadiazolidine-3,5-dione] | – | IC50 (RGS4; Table 6, FCPIA): 0.0145 µM |
